# From patent US5407927A, “Treatment of mild depression and restoration of IGF-I levels in aging by dehydroepiandrosterone” (The Regents of the University of California, priority 1993, dated 1995)
# Where two headings read alike, the source gives them in different places.
# Assays:
# Format in all cases: in vivo, human
# [1] = Sense of well-being or mood-elevating effect (question to subjects); conditions: DHEA 50 mg, 3 months
# Protocol: (§1) Seventeen women and 13 men ages 40-70 in good medical health were enrolled in a clinical trial of DHEA replacement of 6 months duration. The trial was structured as a double-blind randomized placebo-controlled crossover study. […] These subjects were seen monthly and received 50 mg DHEA orally, nightly for 3 months and placebo for 3 months.
# Sense of well-being or mood-elevating effect was reported in response to a question: "Have you noted any effect, good or bad during this treatment?
# (§2) Libido was self-reported by the patients and scored on a visual analog scale. Subjects were evaluated at the end at the 3 month period of DHEA or placebo treatment.
# [2] = Self-reported libido (visual analog scale); conditions: end of 3 month DHEA period
# Protocol: as §1, §2
# [3] = Serum cholesterol, triglycerides, HDL and LDL (standard enzymatic methods); conditions: for CHOLESTEROL / HDL / LDL / TG: DHEA (50 mg) × 3 months, mean ± standard error
# Protocol: as §1
# (§3) Serum cholesterol, triglycerides, apolipoproteins A1 and B, and the HDL and LDL lipoproteins were measured on all serum specimens. Cholesterol, triglycerides, HDL and LDL were measured by standard enzymatic methods. (Allain, C.A., et al., Clin. Chem. 1974, 20:470.) Apolipoproteins were measured by immunoassay methods. Immunoassay methods for measurement of apolipoproteins are described in the literature. […] All other lipid or lipoprotein levels were unchanged by the DHEA administration.
# [4] = Side effects and safety parameters (physical exams, hematology, chemistry) in clinical trial; conditions: 17 women and 13 men ages 40-70; 50 mg orally, nightly, 3 months
# Protocol: as §1
# [5] = system: insulin-like growth factor I (IGF-I); assay: Serum insulin-like growth factor I (immunoassay); conditions: DHEA 50 mg, 3 months
# Protocol: (§4) Blood specimens are drawn from patients immediately prior to the onset of DHEA administration and preferentially at 30 days after the beginning of treatment and at periodic intervals thereafter determined by the treating physician. Serum IGF-I and IGF BP-I levels are determined by immunoassay on these blood specimens. There are a variety of immunoassay methods available for determination of IGF-I and IGF BP-I which are reported in the literature and which are known to those of skill in the art. (Breier, B.H., et al., J. of Endocrinol., 1991, 128:347-357 and Pekonen, F. et al. J. Immunoassay, 1989, 10:325-337.
# as §1
# (§5) Insulin-like growth factor I and insulin-like growth factor binding protein I were measured in serum specimens by immunoassay as described previously.
# [6] = system: insulin-like growth factor binding protein I (IGF BP-I); assay: Serum insulin-like growth factor binding protein I (immunoassay); conditions: DHEA 50 mg, 3 months
# Protocol: as §4, §1, §5
# [7] = Body composition (% body fat by bioelectric impedance, BMI); conditions: DHEA 50 mg orally, nightly, 3 months, mean ± standard error
# Protocol: The term "BMI" means body mass index which is body weight (kg)/height (m^2).
# as §1
# (§6) Insulin sensitivity and glucose effectiveness were measured by euglycemic hyperinsulinemic clamp (Bergman, R.N. J. Clin. Invest., 1987, 79:790-800) and rapid intravenous glucose tolerance test (Bergman, R.N., et al. Amer. J. Physiol., 1979, 236:667-677) and % body fat as measured by bioelectric impedance (Lukaski, H. Amer. J. Nutrition, 1987, 46:537) were measured on all patients after DHEA of placebo treatment. The glucose disposal rate was also measured using Bergman, 1987 (supra).
# [8] = Pharmacokinetic study comparing oral and sublingual administration of DHEA; conditions: for Tmax: human, serum, read-out: time to peak levels of DHEA
# Protocol: FIG. 5: Hormonal levels in men and women after oral 50 mg DHEA (.cndot. and sublingual 50 mg. DHEA (.smallcircle. ).
# A pharmacokinetic study comparing oral and sublingual administration of DHEA was performed on the men and women subjects. DHEA, DHEAS, androstenedione, testosterone and dihydrotestosterone were measured by the immunoassay methods described above on serum specimens drawn at 30 minutes, 1 hour, 2 hours, 4 hours, 5 hours and 8 hours after dose administration. […] Peak levels of DHEA were achieved within 30 minutes with the sublingual route and 3 hours with the oral route.
# [9] = system: sex-hormone binding globulin; assay: Serum sex-hormone binding globulin during oral DHEA (immunoassay); conditions: 50 mg DHEA orally, nightly
# Protocol: (§7) FIG. 2: Hormonal levels during DHEA (50 mg) therapy (represented by stippled area) in men and women. ADIONE (androstenedione); TEST (testosterone); DHT(dihydrotestosterone); SHBG(sex-hormone binding globulin). The shaded area represents the duration of DHEA treatment.
# as §1
# (§8) Blood specimens were drawn from all subjects in the study at baseline (time 0) and at 2 weeks and 12 weeks after DHEA administration, and at 2 weeks after DHEA administration was discontinued. DHEA, DHEAS, androstenedione, testosterone, dihydrotestosterone, and the sex hormone binding globulin were all measured by immunoassay as described by Anderson, D.C., et al. Steroid, 1976, 28:179.
# (§9) Serum levels of testosterone, androstenedione, and dihydrotestosterone, as well as the sex-hormone binding globulin are shown in FIG. 2.
# [10] = system: testosterone, androstenedione, and dihydrotestosterone; assay: Serum androgen levels during oral DHEA (immunoassay); conditions: 50 mg DHEA orally, nightly
# Protocol: as §7, §1, §8, §9
# [11] = Glucose metabolism (euglycemic hyperinsulinemic clamp, rapid intravenous glucose tolerance test); conditions: DHEA 50 mg orally, nightly, 3 months, mean ± standard error
# Protocol: as §1, §6
# [12] = Serum DHEA and DHEAS levels during oral DHEA (immunoassay)
# Protocol: FIG. 1: DHEAS and DHEA serum levels in men and women at baseline, 2 and 12 weeks of DHEA (50 mg) administration and 2 weeks after discontinuation. The horizontal solid line represents mean level during the second decade of life.
# as §1, §8, §9
# [13] = Serum apolipoproteins (immunoassay); conditions: DHEA (50 mg) × 3 months, mean ± standard error
# Protocol: as §1, §3
smiles,measurement,setting,value
"C[C@]12CC[C@H](O)CC1=CC[C@@H]1[C@@H]2CC[C@]2(C)C(=O)CC[C@@H]12 [DHEA, dehydroepiandrosterone]",mood-elevating effect,"[1]; majority of both men and women, in retrospect",An impressive mood-elevating effect was noted in retrospect by the majority of both men and women
same,responses to question on effect noted during treatment,[1]; men and women,"""sleeping better"" ""better ability to handle stress"" ""more relaxed"", ""easier time falling asleep"", ""more energy"" and ""better moods"""
same,self-reported libido,[2],no difference was seen while subjects were on DHEA
same,CHOLESTEROL,[3]; men,209.9 ± 9.4
same,HDL,[3]; men,44.8 ± 1.7
same,LDL,[3]; men,147.5 ± 8.5
same,TG,[3]; men,107.7 ± 10.5
same,"all other lipid or lipoprotein levels (change, in words)","[3]; women and men, DHEA 50 mg, 3 months",unchanged
same,"HDL levels (change, in words)","[3]; women, DHEA 50 mg, 3 months",Only a small reduction in HDL levels were seen in women
same,CHOLESTEROL,[3]; women,218.3 ± 6.9
same,HDL,[3]; women,63.4 ± 2.7
same,LDL,[3]; women,136.0 ± 4.9
same,TG,[3]; women,94.2 ± 7.4
same,"Safety parameters (physical exams, hematology, chemistry)",[4],all within normal limits
same,side effects,[4],No side effects were reported
same,"IGF-I (change, in words)",[5]; men and women,statistically significant elevation
same,"free IGF-I (change, in words)","[5]; men and women, inferred from IGF-I and IGF BP-I",overall increase in free IGF-I
same,IGF-I increase,[5]; men,10%
same,IGF-I increase,[5]; women,12%
same,"IGF BP-I (change, in words)",[6]; men and women,decrease
same,IGF BP-I decrease,[6]; men,12%
same,IGF BP-I decrease,[6]; women,22%
same,% FAT,[7]; men,21.9 ± 1.3%
same,BMI,[7]; men,27.0 ± 0.7 kg/m^2
same,% FAT,[7]; women,31.3 ± 1.0%
same,BMI,[7]; women,24.7 ± 0.7 kg/m^2
same,"rate of absorption, sublingual versus oral","[8]; 50 mg, men and women",absorbed most rapidly sublingually
same,Tmax,[8]; oral 50 mg,≤ 3 h
same,Tmax,[8]; sublingual 50 mg,≤ 0.5 h
same,Sex-hormone binding globulin level,[9],a trend of decline but this decline was not statistically significant
same,"androgens, particularly dihydrotestosterone and estrogens",[10]; men,no changes in any androgens
same,"androgen levels (testosterone, androstenedione, dihydrotestosterone)",[10]; women,doubling of their androgen levels
same,GLUCOSE DISPOSAL RATE,[11]; men,7.64 ± 0.056 mg/kg/min
same,GLUCOSE EFFECTIVENESS,[11]; men,0.019 ± 0.001 min⁻¹
same,INSULIN SENSITIVITY,[11]; men,3.69 ± 0.5 × 10^-4 min^-1 uU^-1 ml
same,GLUCOSE EFFECTIVENESS,[11]; women,0.024 ± 0.002 min⁻¹
same,INSULIN SENSITIVITY,[11]; women,2.90 ± 0.4 × 10^-4 min^-1 uU^-1 ml
same,blood levels of DHEA,"[12]; adults 40-80 years old, 50 to 100 mg orally or sublingually daily, FIG. 1",in the physiological range for younger adults
same,DHEAS serum levels (maintenance),"[12]; men and women, 50 mg DHEA orally, nightly, three month trial",maintained throughout the three month trial
same,DHEAS serum levels (rise),"[12]; men and women, 50 mg DHEA orally, nightly, within 2 weeks of administration",rose to those levels seen in the second decade of life within 2 weeks of administration
same,time for DHEAS levels to return to baseline after discontinuing DHEA,"[12]; men and women, after discontinuing 50 mg DHEA",≤ 2 weeks
same,APO A1,[13]; men,167.4 ± 6.1
same,APO B,[13]; men,149.8 ± 8.5
same,APO A1,[13]; women,213.7 ± 8.1
same,APO B,[13]; women,137.4 ± 5.9
